Measured values published in patent US6713475B2, “Tricyclic benzodiazepines as vasopressin receptor antagonists” (Ortho-McNeil Pharmaceutical, Inc., priority 1999, dated 2004).
Several values for one entry are separate records, joined by “and”; a condition that tells them apart may be missing. Identical values can stand only once.

Each compound was assayed against V2 (Homo sapiens, UniProt P30518) (assay: In vitro recombinant vasopressin receptor binding assay (V2 Bdg), displacement of 3H-arginine vasopressin). Details: 0.1 uM; printed in parentheses in place of IC50.
Set-up: expressed in transfected cells; host or cells: HEK-293
Procedure: In vitro Recombinant Vasopressin Receptor Binding Assay
Compounds were assessed for their ability to displace ^3H-arginine vasopressin from the human V-1 or V-2 receptor in HEK-293 cells. […] Into wells of 96-well round bottom polypropylene plates were added buffer, test compound, membrane (containing cloned human V-1 or V-2 receptor), and ^3H-vasopressin. The reaction plates were allowed to sit at room temperature for one hour. The samples were filtered through Unifilter GF/C plates (presoaked in 0.3 polyethyleneimine). The plates were washed 5 times with cold physiological saline containing 0.05% Tween 20. After drying, the bottom of the filter plates were sealed and 0.025 ml of Microscint-20 was added to each filter. The top of the plate was sealed, and the plate was counted.

Compound	V2 Bdg % inh
Cc1ccc(-c2ccccc2C(=O)Nc2ccc(C(=O)N3CC4CN(C)CCN4Cc4ccccc43)cc2C)cc1 (racemic) [Compound 79, (RS)-2-(4-Methyl-phenyl)-N-[2-methyl-4-(1,3,4,12a-tetrahydro-2-methyl-6H-(1,4]pyrazino[4,3-a][1,4]-benzodiazepin-11(12H)-yl-carbonyl)phenyl]benzamide]	(33%/0.1 uM)
Cc1ccccc1C(=O)Nc1ccc(C(=O)N2CC3CN(C)CCN3Cc3ccccc32)c(C(F)(F)F)c1 (racemic) [Compound 74, (RS)-2-M ethyl-N-[3-trifluoromethyl-4-(1,3,4,12a-tetrahydro-2-methyl-6H-[1,4]pyrazino[4,3-a][1,4]-benzodiazepin-11(12H)-yl-carbonyl)phenyl]benzamide]	(4%/0.1 uM)
CC(C)N1CCN2Cc3ccccc3N(C(=O)c3ccc(NC(=O)c4ccccc4-c4ccccc4)cc3Cl)CC2C1 (racemic) [Compound 60, (RS)-2-Phenyl-N-[3-chloro-4-(1,3,4,12a-tetrahydro-2-isopropyl-6H-[1,4]pyrazino[4,3-a][1,4]-benzodiazepin-11(12H)-yl-carbonyl)phenyl]benzamide]	(25%/0.1 uM)
O=C(Nc1ccc(C(=O)N2CC3CSCCN3Cc3ccccc32)c(F)c1)c1ccccc1-c1ccsc1 (racemic) [Compound 51, (RS)-2-(3-Thienyl)-N-[3-fluoro-4-(1,3,4,12a-tetrahydro-6H-[1,4]thiazino[4,3-a][1,4]-benzodiazepin-11(12H)-yl-carbonyl)phenyl]benzamide]	(62%/0.1 uM)
CN1CCN2Cc3ccccc3N(C(=O)c3ccc(NC(=O)c4cccc(Cl)c4F)cc3Cl)CC2C1 (racemic) [Compound 65, (RS)-2-Fluoro-3-chloro-N-[3-chloro-4-(1,3,4,12a-tetrahydro-2-methyl-6H-[1,4]pyrazino[4,3-a][1,4]-benzodiazepin-11(12H)-yl-carbonyl)phenyl]benzamide]	(17%/0.1 uM)
(RS)-2-(3-Thienyl)-N-[4-(1,3,4,12a-tetrahydro-6H-[1,4]thiazino[4,3-a][1,4]-benzodiazepin-11(12H)-yl-carbonyl)phenyl]benzamide [Compound 49]	(59%/0.1 uM)
CN1CCN2Cc3ccccc3N(C(=O)c3ccc(NC(=O)c4ccccc4-c4ccccc4)cc3C(F)(F)F)CC2C1 (racemic) [Compound 75, (RS)-2-Phenyl-N-[3-trifluoromethyl-4-(1,3,4,12a-tetrahydro-2-methyl-6H-[1,4]pyrazino[4,3-a][1,4]-benzodiazepin-11(12H)-yl-carbonyl)phenyl]benzamide]	(2%/0.1 uM)
(RS)-2-Methyl-5-fluoro-N-[3-chloro-4-(1,3,4,12a-tetrahydro-2-methyl-6H-[1,4]pyrazino[4,3-a][1,4]-benzodiazepin-11(12H)-yl-carbonyl)phenyl]benzamide [Compound 94]	(39%/0.1 uM)
(RS)-2,6-Dimethyl-N-[3-chloro-4-(1,3,4,12a-tetrahydro-2-methyl-6H-[1,4]pyrazino[4,3-a][1,4]-benzodiazepin-11(12H)-yl-carbonyl)phenyl]benzamide [Compound 63]	(9%/0.1 uM)

Same assay, conditions: membrane with cloned human V-2 receptor (HEK-293)

Compound	IC50
COc1ccc(-c2ccccc2C(=O)Nc2ccc(C(=O)N3CC4COCCN4Cc4ccccc43)c(Cl)c2)cc1 (racemic) [Compound 112, (RS)-2-(4-Methoxy-phenyl)-N-[3-chloro-4-(1,3,4,12a-tetrahydro-6H-[1,4]oxazino[4,3-a][1,4]-benzodiazepin-11(12H)-yl-carbonyl)phenyl]benzamide]	6 nM
COc1cccc(-c2ccccc2C(=O)Nc2ccc(C(=O)N3CC4COCCN4Cc4ccccc43)c(Cl)c2)c1 (racemic) [Compound 113, (RS)-2-(3-Methoxy-phenyl)-N-[3-chloro-4-(1,3,4,12a-tetrahydro-6H-[1,4]oxazino[4,3-a][1,4]-benzodiazepin-11(12H)-yl-carbonyl)phenyl]benzamide]	8 nM

Results, then the compound that gave them:

IC50	Compound
32 nM	O=C(Nc1ccc(C(=O)N2C[C@@H]3COCCN3Cc3ccccc32)c(Cl)c1)c1ccccc1-c1ccccc1 [Compound 13, (R)-2-Phenyl-N-[3-chloro-4-(1,3,4,12a-tetrahydro-6H-[1,4]oxazino[4,3-a][1,4]-benzodiazepin-11(12H)-yl-carbonyl)phenyl]benzamide]
9 nM	COc1ccc(C(=O)Nc2ccc(C(=O)N3CC4COCCN4Cc4ccccc43)c(Cl)c2)c(-c2ccccc2)c1 (racemic) [Compound 115, (RS)-2-Phenyl-4-methoxy-N-[3-chloro-4-(1,3,4,12a-tetrahydro-6H-[1,4]oxazino[4,3-a][1,4]-benzodiazepin-11(12H)-yl-carbonyl)phenyl]benzamide]
23 nM	O=C(Nc1ccc(C(=O)N2CC3COCCN3Cc3ccccc32)c(Cl)c1)c1cc(F)ccc1-c1ccccc1 (racemic) [Compound 111, (RS)-2-Phenyl-5-fluoro-N-[3-chloro-4-(1,3,4,12a-tetrahydro-6H-[1,4]oxazino[4,3-a][1,4]-benzodiazepin-11(12H)-yl-carbonyl)phenyl]benzamide]
40 nM	O=C(Nc1ccc(C(=O)N2CC3CSCCN3Cc3ccccc32)c(Cl)c1)c1ccccc1-c1ccsc1 (racemic) [Compound 50, (RS)-2-(3-Thienyl)-N-[3-chloro-4-(1,3,4,12a-tetrahydro-6H-[1,4]thiazino[4,3-a][1,4]-benzodiazepin-11(12H)-yl-carbonyl)phenyl]benzamide]
11 nM	O=C(Nc1ccc(C(=O)N2C[C@H]3CSCCN3Cc3ccccc32)c(Cl)c1)c1ccccc1-c1ccccc1 [Compound 47, (S)-2-Phenyl-N-[3-chloro-4-(1,3,4,12a-tetrahydro-6H-[1,4]thiazino[4,3-a][1,4]-benzodiazepin-11(12H)-yl-carbonyl)phenyl]benzamide]
22 nM	O=C(Nc1ccc(C(=O)N2CC3CSCCN3Cc3ccccc32)c(F)c1)c1ccccc1-c1ccccc1 (racemic) [Compound 106, (RS)-2-Phenyl-N-[3-fluoro-4-(1,3,4,12a-tetrahydro-6H-[1,4]thiazinol[4,3-a][1,4]-benzodiazepin-11(12H)-yl-carbonyl)phenyl]benzamide]
8 nM	O=C(Nc1ccc(C(=O)N2CC3CSCCN3Cc3ccccc32)c(Cl)c1)c1ccc(F)cc1-c1ccccc1 (racemic) [Compound 105, (RS)-2-Phenyl-4-fluoro-N-[3-chloro-4-(1,3,4,12a-tetrahydro-6H-[1,4]thiazino[4,3-a][1,4]-benzodiazepin-11(12H)-yl-carbonyl)phenyl]benzamide]
21 nM	Cc1cc(NC(=O)c2ccccc2-c2ccccc2)ccc1C(=O)N1CC2CSCCN2Cc2ccccc21 (racemic) [Compound 107, (RS)-2-Phenyl-N-[3-methyl-4-(1,3,4,12a-tetrahydro-6H-[1,4]thiazino[4,3-a][1,4]-benzodiazepin-11(12H)-yl-carbonyl)phenyl]benzamide]
35 nM and 54 nM	CN1CCN2Cc3ccccc3N(C(=O)c3ccc(NC(=O)c4ccccc4-c4ccccc4)cc3Cl)CC2C1 (racemic) [Compound 56, (RS)-2-Phenyl-N-[3-chloro-4-(1,3,4,12a-tetrahydro-2-methyl-6H-[1,4]pyrazino[4,3-a][1,4]-benzodiazepin-11(12H)-yl-carbonyl)phenyl]benzamide]
15 nM	Cc1csc(-c2ccccc2C(=O)Nc2ccc(C(=O)N3CC4CSCCN4Cc4ccccc43)cc2)c1 (racemic) [Compound 53, (RS)-2-(4-Methyl-2-thienyl)-N-[4-(1,3,4,12a-tetrahydro-6H-[1,4]thiazino[4,3-a][1,4]-benzodiazepin-11(12H)-yl-carbonyl)phenyl]benzamide]
79 nM	O=C(Nc1ccc(C(=O)N2CC3CSCCN3Cc3ccccc32)c(Cl)c1)c1cc(F)ccc1-c1ccccc1 (racemic) [Compound 104, (RS)-2-Phenyl-5-fluoro-N-[3-chloro-4-(1,3,4,12a-tetrahydro-6H-[1,4]thiazino[4,3-a][1,4]-benzodiazepin-11(12H)-yl-carbonyl)phenyl]benzamide]
140 nM	O=C(Nc1ccc(C(=O)N2CC3CS(=O)(=O)CCN3Cc3ccccc32)cc1)c1ccccc1-c1ccccc1 (racemic) [Compound 55, (RS)-2-Phenyl-N-[4-(1,3,4,12a-tetrahydro-2,2-dioxo-6H-[1,4]thiazino[4,3-a][1,4]-benzodiazepin-11(12H)-yl-carbonyl)phenyl]benzamide]
6 nM	Cc1ccc(F)cc1C(=O)Nc1ccc(C(=O)N2CC3COCCN3Cc3ccccc32)c(Cl)c1 (racemic) [Compound 110, (RS)-2-Methyl-5-fluoro-N-[3-chloro-4-(1,3,4,12a-tetrahydro-6H-[1,4]oxazino[4,3-a][1,4]-benzodiazepin-11(12H)-yl-carbonyl)phenyl]benzamide]

Same assay, conditions: read-out: V2 Bdg % inh

inhibition at 0.1 µM	Compound
37%	Cc1cccc2c1N(C(=O)c1ccc(NC(=O)c3ccccc3-c3ccccc3)cc1)CC1CSCCN1C2 (racemic) [Compound 39, (RS)-2-Phenyl-N-[4-(10-methyl-1,3,4,12a-tetrahydro-6H-[1,4]thiazino[4,3-a][1,4]-benzodiazepin-11(12H)-yl-carbonyl)phenyl]benzamide]
12%	COc1cccc2c1N(C(=O)c1ccc(NC(=O)c3ccccc3-c3ccccc3)cc1)CC1CSCCN1C2 (racemic) [Compound 40, (RS)-2-Phenyl-N-[4-(10-methoxy-1,3,4,12a-tetrahydro-6H-[1,4]thiazino[4,3-a][1,4]-benzodiazepin-11(12H)-yl-carbonyl)phenyl]benzamide]
71%	CN1CCN2Cc3ccccc3N(C(=O)c3ccc(NC(=O)c4ccccc4-c4ccccc4)cc3Cl)CC2C1 (racemic) [Compound 56, (RS)-2-Phenyl-N-[3-chloro-4-(1,3,4,12a-tetrahydro-2-methyl-6H-[1,4]pyrazino[4,3-a][1,4]-benzodiazepin-11(12H)-yl-carbonyl)phenyl]benzamide]
